Measurements as given in PubChem BioAssay AID812 (SRMLSC, 2007).
Active and inactive are the calls of the source. The rule behind the calls is not given here.

These compounds were tested on Saccharomyces cerevisiae lifespan extension, no nicotinamide (assay: yeast lifespan extension without nicotinamide, confirmation, yeast lifespan extension project, S. cerevisiae (AID 812);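 note: growth read as optical density after 42 hours of incubation at 30C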).

Compound	EC50
CCOC(=O)C1C(c2cccs2)NC(=O)N(C)C1(O)C(F)(F)F (stereo not drawn)	> 40 µM (inactive)
COc1cc(Br)cc(-c2nc3c(c(=O)[nH]c(=O)n3Cc3ccccc3)n2C)c1O	> 40 µM (inactive)
CCCCCC(=O)N1CCN(CCN=CC2=C(O)CC(c3ccc(OC)c(OC)c3)CC2=O)CC1 (stereo not drawn)	> 40 µM (inactive)
O=C1NCC2=C1C(c1ccc(Br)cc1)Nc1ccccc1N2 (stereo not drawn)	> 40 µM (inactive)
O=c1cc(O)c2c(=O)n(-c3ccccc3)c3c(c2o1)CCCCC3	> 40 µM (inactive)
Nc1cccc2c1C(=O)N(C(=O)c1ccc(Cl)c(S(=O)(=O)N3CCCCCC3)c1)C2=O	> 40 µM (inactive)
CCNCCNC(=O)c1c(O)c2cccc3c2n(c1=O)CCC3	> 40 µM (inactive)
CCOC(=O)C(=Cc1ccc(F)cc1)C(=O)OCC	> 40 µM (inactive)
CCCCCCN1CC(C(=O)OCC)C(=O)C1=O (stereo not drawn)	> 40 µM (inactive)
COc1ccc(N(C)C(=S)Nc2ccc3nc(C)c(C)nc3c2)cc1	> 40 µM (inactive)
O=C(CCN1CCCCCC1)Nc1ccc(F)cc1	> 40 µM (inactive)
CC(C)Cn1c(=O)c(C(=O)Nc2cnccn2)c(O)c2ccccc21	> 40 µM (inactive)
CCCCSc1nc(O)c(C2OC(=O)c3c2ccc(OC)c3OC)c(=O)n1C (stereo not drawn)	> 40 µM (inactive)
CN1C(=O)NC(c2ccc(O)cc2)C(C(=O)c2cccs2)C1(O)C(F)(F)F (stereo not drawn)	> 40 µM (inactive)
COc1ccc(C(=O)C(CN2CCOCC2)c2ccccc2)cc1F (stereo not drawn)	> 40 µM (inactive)
CC(=O)Oc1ccc(N(C(C)=O)S(=O)(=O)c2ccc(C)c([N+](=O)[O-])c2)cc1	> 40 µM (inactive)
CCN1C(=O)C(=Cc2ccc(C)s2)C(=O)N(CC)C1=S	> 40 µM (inactive)
N#CSCC(=O)N1c2ccccc2CCc2ccccc21	> 40 µM (inactive)
C=CS(=O)(=O)c1ccc(Oc2ccc(S(=O)(=O)C=C)cc2)cc1	> 40 µM (inactive)
COc1ccc(C(=O)On2c(-c3ccc(Br)cc3)nc3ccccc3c2=O)cc1	> 40 µM (inactive)
CCOc1cc(Br)c(Br)c(C=Nc2ccc(NC(C)=O)cc2)c1O	> 40 µM (inactive)
CC1=C(C#N)C2C(/C1=N/O)C2(C)C (stereo not drawn)	> 40 µM (inactive)
Fc1cccc2sc(Nc3nnc(-c4ccco4)o3)nc12	> 40 µM (inactive)
Cc1cc(C)nc(SCc2cc(=O)c(OC(=O)c3ccco3)co2)n1	> 40 µM (inactive)
CCCCCn1c(=O)c(C(=O)NCc2ccccn2)c(O)c2ccccc21	> 40 µM (inactive)

Compound	EC50
O=c1c2ccccc2nc(-c2ccc(Cl)c(Cl)c2)n1O	> 40 µM (inactive)
CN1CCN(CC(=O)Nc2ccc(Cl)cc2Cl)CC1	> 40 µM (inactive)
CCCC(=O)Nc1ccc(C(=O)NNC(=S)NC(=O)c2cccs2)cc1	> 40 µM (inactive)
O=C(O)c1c[nH]c(=S)n1-c1ccc(F)cc1	> 40 µM (inactive)
CC1CCCCC1NC(=O)/C(C#N)=C/c1ccccc1F (stereo not drawn)	> 40 µM (inactive)
COc1cc(/C=C/C(=O)c2c(O)cc(C)oc2=O)cc(OC)c1O	> 40 µM (inactive)
CCCCC1C(=O)CC[C@H]2[C@@H]1CC(=O)[C@@H]2C/C=C\CCCC(=O)O (stereo partly drawn)	> 40 µM (inactive)
O=C(Oc1ccc([N+](=O)[O-])cc1)c1ccc2ccccc2n1	> 40 µM (inactive)
O=c1c2c3c(sc2ncn1/N=C/c1ccc([N+](=O)[O-])o1)CCCC3	> 40 µM (inactive)
O=C1/C(=N/n2cnnc2)c2ccccc2N1Cc1ccccc1	> 40 µM (inactive)
O=C(O)CCCCCN1C(=O)/C(=C\c2ccncc2)SC1=S	> 40 µM (inactive)
N#C/C(=C\c1ccccc1)C(=O)N(c1ccccn1)C1CCCCC1	> 40 µM (inactive)
CCCC(=Nc1ccc(N)cc1)C1=C(O)C(C(=O)OC)C(C)(C)CC1=O (stereo not drawn)	> 40 µM (inactive)
CC(C)CN=C(NS(=O)(=O)c1ccccc1)C(Cl)(Cl)Cl	> 40 µM (inactive)
COC(=O)CSc1ncccc1-c1nc2ccccc2[nH]1	> 40 µM (inactive)
CC(=C1C(=O)c2ccccc2C1=O)N1CCN(c2ccccn2)CC1	> 40 µM (inactive)
Cc1nc2c(=O)n(C)c(=O)n(C)c2nc1Cl	> 40 µM (inactive)
Cc1ccc(OCC(=O)c2c(O)c3ccccc3oc2=O)cc1C	> 40 µM (inactive)
CCOC(=O)c1[nH]nc(C(=O)c2ccc(Br)cc2)c1O	> 40 µM (inactive)
C/C=C/Cn1c(N2CCCCCC2)nc2c1c(=O)[nH]c(=O)n2C	> 40 µM (inactive)
CCc1ccc2c(c1)CCCN2C(=O)c1ccccc1C(=O)O	> 40 µM (inactive)
O=C(Nc1ccc(Br)cn1)c1cccc(-c2cc3ccccc3oc2=O)c1	> 40 µM (inactive)
COc1ccc(/C=C/C(=O)C2C(=O)C=C(C)OC2=O)cc1O (stereo not drawn)	> 40 µM (inactive)
COc1ccc(NCc2nc3ccccc3n2CCOc2ccccc2)cc1	> 40 µM (inactive)
O=C(N/N=C/c1cccc(F)c1)c1c(O)c2ccccc2[nH]c1=O	> 40 µM (inactive)

Compound	EC50
CCCCCC1CC1C(=O)N/N=C/c1ccc(N(C)C)cc1 (stereo not drawn)	> 40 µM (inactive)
Cc1ccc(N(C)C(=O)Oc2ccc(C(=O)c3ccc(Cl)cc3)cc2)cc1	> 40 µM (inactive)
O=C1c2ccccc2NC(c2cnc3ccccc3n2)N1O (stereo not drawn)	> 40 µM (inactive)
O=C(CCC1CCCC1)c1c(O)c2ccccc2oc1=O	> 40 µM (inactive)
Cc1ccccc1NC(=O)c1ccccc1	> 40 µM (inactive)
CC1=NN(Cc2ccccc2)C(=O)C1C(c1ccccc1)C(C#N)C#N (stereo not drawn)	> 40 µM (inactive)
CCOC(=O)c1c(C)oc2c1c(C(c1cccnc1)N1CCOCC1)c(O)c1ccccc12 (stereo not drawn)	> 40 µM (inactive)
CC1(C)CC(=O)c2sc(NS(C)(=O)=O)nc2C1	> 40 µM (inactive)
O=C(CS(=O)c1ccc(C(F)(F)F)cc1[N+](=O)[O-])Oc1ccccc1 (stereo not drawn)	> 40 µM (inactive)
COc1ccc(C(=O)C(CN2CCOCC2)c2ccccc2)cc1 (stereo not drawn)	> 40 µM (inactive)
Cc1ccc(S(=O)(=O)Nc2ccccc2/C=N/c2nc3ccccc3n2C(C)C)cc1	> 40 µM (inactive)
Cc1ccc(Oc2nc3ccccc3n3c(C)nnc23)c(C)c1	> 40 µM (inactive)
COc1ccccc1-c1c(C)oc2cc(OC(=O)c3ccco3)ccc2c1=O	> 40 µM (inactive)
CCCCN(CCCC)c1ccc(C(=O)c2ccccc2C(=O)O)c(O)c1	> 40 µM (inactive)
O=C(CCc1ccccc1)NCCCN1CCOCC1	> 40 µM (inactive)
CN(C)/C=C(/C(=O)c1ccc(Cl)cc1Cl)S(=O)(=O)c1ccccc1	> 40 µM (inactive)
CC(C)c1ccc2occ(-c3nn[nH]n3)c(=O)c2c1	> 40 µM (inactive)
CCc1nnc(N2C(=O)c3ccc(Oc4ccc([N+](=O)[O-])cc4)cc3C2=O)s1	> 40 µM (inactive)
CCSc1nnc(NC(=O)C2(C)Cc3ccccc3C(=O)O2)s1 (stereo not drawn)	> 40 µM (inactive)
O=C(/C(=C/O)N=Nc1ccc(Cl)cc1)c1ccncc1	> 40 µM (inactive)
O=C1c2ccccc2-c2onc3c(Oc4ccccc4)cc(O)c1c23	> 40 µM (inactive)
CCOc1ccc(N=Cc2c(O)c3ccccc3oc2=O)cc1	> 40 µM (inactive)
Cc1nc2ccccc2n1-c1ccccc1	> 40 µM (inactive)
